Assay results from ChEMBL document CHEMBL5252637, “Identification of a new class of proteasome inhibitors based on a naphthyl-azotricyclic-urea-phenyl scaffold” (RSC Med Chem, 2023).

Assays:
[1] = target: T1, Proteasome Macropain subunit MB1 (Homo sapiens, UniProt P28074); assay: Inhibition of human 20S constitutive proteosome beta5c subunit using Suc-LLVY-AMC as substrate measured after 10 mins by fluorescence based analysis
T1 sequence (P28074 whole entry): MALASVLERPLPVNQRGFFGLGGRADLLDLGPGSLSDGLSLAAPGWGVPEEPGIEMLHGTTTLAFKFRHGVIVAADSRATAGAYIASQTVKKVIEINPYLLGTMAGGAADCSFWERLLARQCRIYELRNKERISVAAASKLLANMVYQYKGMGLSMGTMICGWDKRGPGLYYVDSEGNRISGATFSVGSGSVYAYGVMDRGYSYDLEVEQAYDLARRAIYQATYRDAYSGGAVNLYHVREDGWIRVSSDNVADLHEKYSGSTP

[2] = target: T1, Proteasome Macropain subunit MB1; assay: Competitive inhibition of human 20S constitutive proteosome beta5c subunit using Suc-LLVY-AMC as substrate measured after 10 mins by fluorescence based analysis

IC50 [1] [µM]	Ki [2] [µM]	SMILES
560		COc1ccccc1NC(=O)Nc1ccc2n(c1=O)C[C@@H]1C[C@H]2CN(C(=O)c2ccccn2)C1
201		N#Cc1cccc(NC(=O)Nc2ccc3n(c2=O)C[C@@H]2C[C@H]3CN(C(=O)c3ccccc3)C2)c1
6.65	4.6	COc1ccccc1NC(=O)Nc1ccc2n(c1=O)C[C@@H]1C[C@H]2CN(C(=O)c2ccc3ccccc3c2)C1
10.3	3.42	N#Cc1cccc(NC(=O)Nc2ccc3n(c2=O)C[C@@H]2C[C@H]3CN(C(=O)c3ccc4ccccc4c3)C2)c1
11.1	9.69	O=C(Nc1ccccc1)Nc1ccc2n(c1=O)C[C@@H]1C[C@H]2CN(C(=O)c2ccc3ccccc3c2)C1
3.43	1.14	O=C(Nc1ccc(Cl)cc1)Nc1ccc2n(c1=O)C[C@@H]1C[C@H]2CN(C(=O)c2ccc3ccccc3c2)C1
440		N#Cc1cccc(NC(=O)Nc2ccc3n(c2=O)C[C@@H]2C[C@H]3CN(C(=O)c3cccnc3)C2)c1

SMILES	IC50 [1] [µM]	Ki [2] [µM]
CC(=O)N1C[C@H]2C[C@@H](C1)c1ccc(NC(=O)Nc3cccc(C#N)c3)c(=O)n1C2	491	
O=C(Nc1ccccc1)Nc1ccc2n(c1=O)C[C@@H]1C[C@H]2CN(C(=O)c2ccccn2)C1	> 500	
